We go through one compound from doi:10.1101/2020.06.11.145995v1 (biorxiv, 2020).

Targets include PIP5K2B (Homo sapiens, UniProt P78356); PIM3 (Homo sapiens, UniProt Q86V86); PIK4CB (Homo sapiens, UniProt Q9UBF8).
What all share (experiment): biochemical
What all share (conditions): read-out: CPT-1-70-1 (1μM) % control

Sequence of PIK4CB (Q9UBF8 whole entry): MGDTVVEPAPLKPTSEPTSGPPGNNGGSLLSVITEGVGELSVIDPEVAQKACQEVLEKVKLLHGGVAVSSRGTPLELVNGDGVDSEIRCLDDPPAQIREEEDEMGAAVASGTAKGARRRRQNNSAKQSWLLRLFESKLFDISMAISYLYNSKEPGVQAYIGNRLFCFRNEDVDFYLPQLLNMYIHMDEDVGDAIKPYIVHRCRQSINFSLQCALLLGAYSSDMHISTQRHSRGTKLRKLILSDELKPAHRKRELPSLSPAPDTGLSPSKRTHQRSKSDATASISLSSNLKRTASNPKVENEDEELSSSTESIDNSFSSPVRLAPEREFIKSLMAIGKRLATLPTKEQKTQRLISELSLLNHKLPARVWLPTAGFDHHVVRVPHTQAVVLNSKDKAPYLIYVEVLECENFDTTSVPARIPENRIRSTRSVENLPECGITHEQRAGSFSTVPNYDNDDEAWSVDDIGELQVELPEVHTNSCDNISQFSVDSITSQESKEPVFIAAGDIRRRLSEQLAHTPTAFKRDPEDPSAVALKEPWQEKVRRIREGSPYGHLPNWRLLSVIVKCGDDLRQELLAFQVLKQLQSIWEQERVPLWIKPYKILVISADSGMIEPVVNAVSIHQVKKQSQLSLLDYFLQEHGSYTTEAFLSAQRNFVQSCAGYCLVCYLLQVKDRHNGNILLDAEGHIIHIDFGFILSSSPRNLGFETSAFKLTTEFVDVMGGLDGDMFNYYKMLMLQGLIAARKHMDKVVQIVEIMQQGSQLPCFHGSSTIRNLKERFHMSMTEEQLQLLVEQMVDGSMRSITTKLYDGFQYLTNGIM
Sequence of PIP5K2B (P78356 whole entry): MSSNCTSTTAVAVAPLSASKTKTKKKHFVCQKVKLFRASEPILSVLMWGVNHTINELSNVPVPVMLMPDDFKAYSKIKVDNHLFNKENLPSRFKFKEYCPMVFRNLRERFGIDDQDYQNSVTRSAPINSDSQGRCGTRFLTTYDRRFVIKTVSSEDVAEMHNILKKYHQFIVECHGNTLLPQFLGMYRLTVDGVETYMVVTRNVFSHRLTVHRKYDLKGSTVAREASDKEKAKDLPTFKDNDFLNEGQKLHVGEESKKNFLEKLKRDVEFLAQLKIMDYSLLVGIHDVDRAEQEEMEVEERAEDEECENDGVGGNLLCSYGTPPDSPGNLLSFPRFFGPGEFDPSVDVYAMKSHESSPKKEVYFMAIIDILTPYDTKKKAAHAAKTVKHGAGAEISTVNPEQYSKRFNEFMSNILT

Regarding `CN1CCN(c2ccc(Nc3nc(Oc4ccc(NC(=O)CCl)cc4)c4cc[nH]c4n3)cc2)CC1` [CPT1-70-1], the values for the remaining activity at 1 µM at PIP5K2B, at PIM3 and on PIK4CB were 100%, 81% and 100%, respectively.
